Bridge positions count the residues as written; N and C are the ends. Square brackets hold non-standard residues; d marks the D form. Peptide text beside a SMILES is read from it. R8 = C=CCCCCCC[C@@](C)(N)C(=O)O; hLeu = CC(C)CC[C@H](N)C(=O)O; S5 = C=CCCC[C@](C)(N)C(=O)O; Nle = CCCC[C@H](N)C(=O)O
Key:
[1] = Circular dichroism (CD) analysis of alpha-helicity; assay type: physicochemical; details: for Molar Ellipticity 50% TFE (222 in 50% TFE): CD buffer with 50% TFE; for Molar Ellipticity 50% TFE (222 in 50% TFE) / Molar Ellipticity Benign (222 in 0% TFE): 0.05 mg/ml, 4° C.; for Molar Ellipticity Benign (222 in 0% TFE): benign CD buffer (20 mM phosphoric acid, pH 2); for % Helix benign compared to 50% TFE parent (CD): benign buffer
Experimental: Peptide solutions were analyzed by CD spectroscopy using a Jasco J-815 spectropolarimeter (Jasco Inc., Easton, Md.) with the Jasco Spectra Manager Ver. 2 system software. A Peltier temperature controller was used to maintain temperature control of the optical cell. Results are expressed as mean molar ellipticity (deg cm^2 dmol^−1) as calculated from the equation [0]=θobs·MRW/10*l*c where θobs is the observed ellipticity in millidegrees, MRW is the mean residue weight of the peptide (peptide molecular weight/number of residues), 1 is the optical path length of the cell in centimeters, and c is the peptide concentration in mg/ml. Peptide concentrations were determined by amino acid analysis. Stock solutions of peptides were prepared in benign CD buffer (20 mM phosphoric acid, pH 2). The stocks were used to prepare peptide solutions of 0.05 mg/ml in either benign CD buffer or CD buffer with 50% trifluoroethanol (TFE) for analyses in a 10 mm pathlength cell. Variable wavelength measurements of peptide solutions were scanned at 4° C. from 195 to 250 nm, in 0.2 nm increments, and a scan rate 50 nm per minute. The average of six scans was reported.

[2] = tested on: SJSA-1 cells; experiment: Cell lysis by peptidomimetic macrocycles (LDH release); assay type: cell-based; details: SJSA-1, 1 h
Procedure, shortened: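 SJSA-1 cells plated the day before, switched to RPMI with 1% FBS, then exposed 1 h at 37 °C to macrocycle at final 50 μM to 6.25 μM in 0.5% DMSO. LDH released into the supernatant was measured by kit. Controls: 0.5% DMSO (non-lytic), 10 μM melittin and 1% Triton X-100 (lytic).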

[3] = tested on: Caspase 3; experiment: Caspase 3 detection assay in SJSA1 cells; assay type: cell-based; details: SJSA1, 48 h, Caspase 3 activation over DMSO-treated cells
[4] = tested on: RKO; experiment: Cell viability assay (MTT), RKO; details: read-out: RKO EC50 (72 h)

SMILES | % Helix 50% TFE compared to 50% TFE parent (CD) [1] | Molar Ellipticity TFE − Molar Ellipticity Benign ([1]; 222 nm) | Molar Ellipticity 50% TFE (222 in 50% TFE) ([1]; 222 nm) | Molar Ellipticity Benign (222 in 0% TFE) ([1]; 222 nm) | % Helix benign compared to 50% TFE parent (CD) [1] | 6.25 μM % Lysed cells (1 h LDH) [2] | 25 μM % Lysed cells (1 h LDH) [2] | 50 μM % Lysed cells (1 h LDH) [2] | caspase 0.3 μM [3] | caspase 3 μM [3] | caspase 10 μM [3] | caspase 30 μM [3] | EC50 [4] | caspase 1 μM [3]
CC(=O)N[C@@H](CC(C)C)C(=O)N[C@H](C(=O)N[C@@H](Cc1ccccc1)C(=O)N[C@]1(C)CCCCCCC=CCCC[C@@](C)(C(=O)N[C@@H](Cc2c[nH]cn2)C(=O)N[C@@H](Cc2c[nH]cn2)C(=O)N[C@@H](CC(C)C)C(=O)N[C@H](C)C(N)=O)NC(=O)[C@H](CC(C)C)NC(=O)[C@H](CCC(N)=O)NC(=O)[C@H](C)NC(=O)[C@H](Cc2c[nH]c3ccccc23)NC(=O)[C@H](Cc2ccc(O)cc2)NC(=O)[C@H](C)NC1=O)[C@@H](C)O [compound 43] (Ac-LTF[R8]AYWAQL[S5]HHL[dA]-NH2; staple 4-11) | 116.4% | 2912.9 deg cm^2 dmol^−1 | −18247.4 deg cm^2 dmol^−1 | −15334.5 deg cm^2 dmol^−1 | 97.8% | 0% | −1% | −1% | – | – | – | – | – | –
CC(=O)N[C@@H](CC(C)C)C(=O)N[C@H](C(=O)N[C@@H](Cc1ccccc1)C(=O)N[C@]1(C)CCCCCC/C=C\CCC[C@@](C)(C(=O)N[C@@H](CO)C(=O)N[C@@H](C)C(=O)N[C@@H](C)C(N)=O)NC(=O)[C@H](CCC(C)C)NC(=O)[C@H](CCC(N)=O)NC(=O)[C@H](C)NC(=O)[C@H](Cc2c[nH]c3ccccc23)NC(=O)[C@H](Cc2ccc(O)cc2)NC(=O)[C@H](C)NC1=O)[C@@H](C)O [compound 114] (Ac-LTF[R8]AYWAQ[hLeu][S5]SAA-NH2; staple (Z) 4-11) | – | – | – | – | – | 3% | 4% | 9% | 1 | 6 | 28 | 34 | 5 to 15 µM | –
CC(=O)N[C@@H](CC(C)C)C(=O)N[C@H](C(=O)N[C@@H](Cc1ccccc1)C(=O)N[C@]1(C)CCCCCCC=CCCC[C@@](C)(C(=O)N[C@@H](CO)C(=O)N[C@@H](C)C(=O)N[C@@H](CC(C)C)C(N)=O)NC(=O)[C@H](CC(C)C)NC(=O)[C@H](CCC(N)=O)NC(=O)[C@H](C)NC(=O)[C@H](Cc2c[nH]c3ccccc23)NC(=O)[C@H](Cc2ccc(O)cc2)NC(=O)[C@H](C)NC1=O)[C@@H](C)O [compound 4] (Ac-LTF[R8]AYWAQL[S5]SAL-NH2; staple 4-11) | – | – | – | – | – | −2% | 1% | 2% | – | 9 | 37 | 35 | < 5 µM | –
CC(=O)N[C@@H](CCC(=O)O)C(=O)N[C@H](C(=O)N[C@@H](Cc1ccccc1)C(=O)N[C@]1(C)CCCCCCC=CCCC[C@@](C)(C(=O)N[C@@H](C)C(=O)N[C@@H](C)C(=O)N[C@@H](C)C(=O)N[C@@H](C)C(=O)N[C@@H](C)C(=O)N[C@H](C)C(N)=O)NC(=O)[C@H](CC(C)C)NC(=O)[C@H](CCC(N)=O)NC(=O)[C@H](C)NC(=O)[C@H](Cc2c[nH]c3ccccc23)NC(=O)[C@H](Cc2ccc(O)cc2)NC(=O)[C@H](CCC(=O)O)NC1=O)[C@@H](C)O (single isomer, unassigned) [compound 341] | – | – | – | – | – | 0% | 0% | 0% | 3 | 11 | 14 | 21 | 15 to 30 µM | 8
CC(=O)N[C@@H](CC(C)C)C(=O)N[C@H](C(=O)N[C@@H](Cc1ccccc1)C(=O)N[C@]1(C)CCCCCC/C=C/CCC[C@@](C)(C(=O)N[C@@H](C)C(=O)N[C@@H](C)C(=O)N[C@@H](C)C(=O)N[C@@H](C)C(=O)N[C@@H](C)C(=O)N[C@H](C)C(N)=O)NC(=O)[C@H](CC2CCC2)NC(=O)[C@H](CCC(N)=O)NC(=O)[C@H](CO)NC(=O)[C@H](Cc2c[nH]c3ccccc23)NC(=O)[C@H](Cc2ccc(O)cc2)NC(=O)[C@H](CCC(=O)O)NC1=O)[C@@H](C)O [compound 351] | – | – | – | – | – | 0% | 0% | 0% | 3 | 13 | 15 | 24 | 5 to 15 µM | 9
CC(=O)N[C@@H](CC(C)C)C(=O)N[C@H](C(=O)N[C@@H](Cc1ccccc1)C(=O)N[C@]1(C)CCCCCC/C=C/CCC[C@@](C)(C(=O)N[C@@H](C)C(=O)N[C@@H](C)C(=O)N[C@@H](C)C(=O)N[C@@H](C)C(=O)N[C@@H](C)C(=O)N[C@H](C)C(N)=O)NC(=O)[C@H](CC2CCC2)NC(=O)[C@H](CCC(N)=O)NC(=O)[C@H](C)NC(=O)[C@H](Cc2c[nH]c3ccccc23)NC(=O)[C@H](Cc2ccc(C(=O)O)cc2)NC(=O)[C@H](CCC(=O)O)NC1=O)[C@@H](C)O [compound 349] | – | – | – | – | – | 0% | 0% | 0% | 1 | 11 | 16 | 24 | 5 to 15 µM | 8
CC(=O)N[C@@H](CCC(=O)O)C(=O)N[C@H](C(=O)N[C@@H](Cc1ccccc1)C(=O)N[C@]1(C)CCCCCCC=CCCC[C@@](C)(C(=O)N[C@@H](CO)C(=O)N[C@@H](C)C(=O)N[C@@H](C)C(N)=O)NC(=O)[C@H](CC(C)C)NC(=O)[C@H](CCC(N)=O)NC(=O)[C@H](C)NC(=O)[C@H](Cc2c[nH]c3ccccc23)NC(=O)[C@H](Cc2ccc(O)cc2)NC(=O)[C@H](C(C)C)NC1=O)[C@@H](C)O [compound 125] (Ac-ETF[R8]VYWAQL[S5]SAA-NH2; staple 4-11) | – | – | – | – | – | 0% | 0% | 2% | 1 | 3 | 9 | 29 | 5 to 15 µM | –
CCCC[C@H](NC(=O)[C@H](CCC(N)=O)NC(=O)[C@H](CCC(N)=O)NC(=O)[C@]1(C)CCCC=CCCCCCC[C@@](C)(NC(=O)[C@H](Cc2ccccc2)NC(C)=O)C(=O)N[C@@H](C)C(=O)N[C@@H](Cc2ccc(O)cc2)C(=O)N[C@@H](Cc2c[nH]c3ccccc23)C(=O)N[C@@H]([C@@H](C)O)C(=O)N[C@@H](C)C(=O)N[C@@H](CC(C)C)C(=O)N1)C(=O)N[C@@H](C(N)=O)C(C)C [compound 41] (Ac-F[R8]AYWTAL[S5]QQ[Nle][dV]-NH2; staple 2-9) | 136% | – | −21319.4 deg cm^2 dmol^−1 | −909 deg cm^2 dmol^−1 | 5.8% | – | – | – | – | – | – | – | – | –
CC[C@H](C)[C@H](NC(=O)[C@H](C)NC(=O)[C@H](C)NC(=O)[C@]1(C)CCCC=CCCCCCC[C@@](C)(NC(=O)[C@H](Cc2ccccc2)NC(=O)[C@@H](NC(=O)[C@H](CCC(=O)O)NC(C)=O)[C@@H](C)O)C(=O)N[C@@H](CCC(=O)O)C(=O)N[C@@H](Cc2c[nH]cn2)C(=O)N[C@@H](Cc2c[nH]c3ccccc23)C(=O)N[C@@H](C)C(=O)N[C@@H](CCC(N)=O)C(=O)N[C@@H](CC(C)C)C(=O)N1)C(=O)N[C@H](C)C(N)=O (single isomer, unassigned) [compound 175] | – | – | – | – | – | 3% | 1% | 0% | 1 | 5 | 12 | 21 | > 30 µM | –

— US20200369728A1, “PEPTIDOMIMETIC MACROCYCLES AND USES THEREOF” (Aileron Therapeutics, Inc., priority 2015, published 2020)
